According to patent publication US20120010161A1, “NOVEL AZAPEPTIDE OR AZAPEPTIDOMIMETIC COMPOUNDS INHIBITING BCRP AND/OR P-GP” (CENTRE NATIONAL DE LA RECHERCHE SCIENTIFIQUE, priority 2009, published 2012):
Entries after “also recorded” stand apart in the source; their conditions may differ.

Experiments:
[1] = molecular target: T1, P-gp/ABCB1 (Homo sapiens, UniProt P08183); assay: Flow cytometry: mitoxantrone efflux induced by ABCB1 in transfected NIH3T3 cells; format: cell-based; details: for inhibition at 2 μM / inhibition at 10 μM: human, NIH3T3 cells transfected with ABCB1 (vector pHaMDR1/A), probe mitoxantrone (5 μM); for inhibition at 2 μM: 2 μM compound, read-out: P-gp/ABCB1 % efficacy 2 μM; for inhibition at 10 μM: 10 μM compound, read-out: P-gp/ABCB1 % efficacy 10 μM
T1 construct: expressed in transfected cells; host or cells: NIH3T3 transfected with pHaMDR1/A
T1 sequence (P08183 whole entry): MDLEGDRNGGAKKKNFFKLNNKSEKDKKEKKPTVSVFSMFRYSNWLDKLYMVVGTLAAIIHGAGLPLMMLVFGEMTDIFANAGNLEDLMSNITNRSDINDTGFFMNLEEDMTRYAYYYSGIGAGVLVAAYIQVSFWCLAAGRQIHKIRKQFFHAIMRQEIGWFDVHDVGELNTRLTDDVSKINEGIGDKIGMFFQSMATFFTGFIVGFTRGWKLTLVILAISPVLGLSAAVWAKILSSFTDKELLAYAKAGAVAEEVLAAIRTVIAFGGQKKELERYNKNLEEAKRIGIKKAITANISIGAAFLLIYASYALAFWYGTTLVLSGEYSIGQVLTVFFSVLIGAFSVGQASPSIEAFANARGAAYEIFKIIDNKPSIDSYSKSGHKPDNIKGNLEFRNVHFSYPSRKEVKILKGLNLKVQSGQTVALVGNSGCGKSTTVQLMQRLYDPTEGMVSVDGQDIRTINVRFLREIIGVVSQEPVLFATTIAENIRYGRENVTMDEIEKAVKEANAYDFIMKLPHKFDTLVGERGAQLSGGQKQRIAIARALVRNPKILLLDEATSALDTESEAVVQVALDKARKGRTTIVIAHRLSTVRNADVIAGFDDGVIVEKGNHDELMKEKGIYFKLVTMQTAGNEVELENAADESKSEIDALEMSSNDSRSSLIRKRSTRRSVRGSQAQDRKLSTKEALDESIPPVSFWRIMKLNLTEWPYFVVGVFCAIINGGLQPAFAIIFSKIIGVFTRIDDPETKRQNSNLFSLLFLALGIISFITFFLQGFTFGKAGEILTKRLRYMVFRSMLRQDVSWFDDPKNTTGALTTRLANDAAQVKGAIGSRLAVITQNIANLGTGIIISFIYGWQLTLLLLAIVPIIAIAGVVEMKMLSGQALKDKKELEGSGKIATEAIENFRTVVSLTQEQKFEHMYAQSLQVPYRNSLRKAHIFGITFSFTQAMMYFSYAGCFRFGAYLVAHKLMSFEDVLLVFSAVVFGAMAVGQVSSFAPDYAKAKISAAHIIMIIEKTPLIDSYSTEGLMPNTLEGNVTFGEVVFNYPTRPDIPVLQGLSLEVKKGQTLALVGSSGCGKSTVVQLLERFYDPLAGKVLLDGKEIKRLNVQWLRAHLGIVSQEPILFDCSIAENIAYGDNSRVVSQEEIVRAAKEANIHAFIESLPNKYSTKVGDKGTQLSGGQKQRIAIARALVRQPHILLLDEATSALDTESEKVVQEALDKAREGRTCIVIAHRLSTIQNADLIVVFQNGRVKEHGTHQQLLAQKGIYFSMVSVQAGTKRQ
Description: Cell cultures. The human […] HEK-293 transfected with the vector pcDNA3.1 including or not the gene encoding ABCG2 (Robey, R. W., Honjo, Y., Morisaki, K., Nadjem, T. A., Runge, S., Risbood, M., Poruchynsky, M. S., Bates, S. E. 2003, Br. J. Cancer 89(10) 1971-1978) was used to test the efficacy of the products on ABCG2. The newborn hamster kidney cell line BHK21 either natural (negative control) or transfected with the vector pNUT-MRP/His expressing the gene encoding ABCC1 (Chang, Xiu-Bao, Hou, Yue-Xian, Riordan, John R. 1997, J. Biol. Chem. 272(49) 30962-30968) was used to test the efficacy of the products on ABCC1. The cell line NIH3T3 natural or transfected with the vector pHaMDR1/A expressing ABCB1 (Cardarelli, Carol O., Aksentijevich, Ivan, Pastan, Ira, Gottesman, Michael M. 1995 Cancer Res. 55 1086-1091) was used to test the efficacy of the compounds on ABCB1. The various cell types are cultured according to the protocols described previously (Robey, R. W., Honjo, Y., Morisaki, K., Nadjem, T. A., Runge, S., Risbood, M., Poruchynsky, M. S., Bates, S. E. 2003, Br. J. Cancer 89(10) 1971-1978 for the line HEK293, Chang, Xiu-Bao, Hou, Yue-Xian, Riordan, John R. 1997, J. Biol. Chem. 272(49) 30962-30968 for the line BHK21 and Cardarelli, Carol O., Aksentijevich, Ivan, Pastan, Ira, Gottesman, Michael M. 1995 Cancer Res. 55 1086-1091 for the line NIH3T3).
FIG. 1 schematically illustrates an efflux of substrate induced by a typical ABC transporter. The substrates S, such as mitoxantrone effluxed with ABCG2 and ABCB1 or daunorubicin effluxed with ABCC1, are accumulated in the cells and expelled by the transporter T, leading to a decrease in intracellular fluorescence. In the case of accumulation of the product, typically by inhibition of the efflux protein, the intracellular fluorescence increases.
Flow cytometry. Transfected or untransfected HEK-293 and BHK-21 cells are in a first stage placed in contact with substrate (5 μM mitoxantrone or 1 μM daunorubicin depending on the transporter). The substrate is accumulated for 30 minutes at 37° C. in the presence or absence of varied concentrations of the test molecules, at 0.5% of DMSO final. After washing with PBS, the cells are incubated in medium containing the same concentrations of test molecules as previously, for 1 hour at 37° C. The drug intracellular fluorescence is measured with a FACscan flow cytometer (Becton Dickinson, Mountain View, Calif.). The fluorescent substrates are excited at 488 nm; the fluorescence emission of mitoxantrone (MTX) is measured at 650 nm and that of daunorubicin is measured at 530 nm. The efficacy of the test molecules is estimated by means of equation 1:
% efficacy=100×(FA−FBG)/(FC−FBG),
in which: • FA corresponds to the intracellular level of substrate measured in the cells overexpressing the transporter T (corresponding to the lowest level of fluorescence in the absence of inhibitor), • FC corresponds to the fluorescence in the control cells not expressing the test transporter. This is thus the maximum accumulation of substrate in the cells), • FBG corresponds to the fluorescence measured in the absence of substrate and in the presence of inhibitor.
The compounds presented in TABLES 2 to 5 were tested by flow cytometry on mammalian cell lines selectively expressing the efflux proteins ABCG2, ABCB1 or ABCC1, as described previously.
The mitoxantrone efflux induced by ABCG2 or ABCB1 and the daunorubicin efflux induced by ABCC1 are estimated by flow cytometry, as described previously, at 10 μM of each test compound, and then at 2 μM for the compounds showing at least 80% efficacy at 10 μM. The concentration inducing 50% inhibition (IC50) was estimated for the most efficient aza derivatives. The values are obtained by three independent experiments and were adjusted using the SigmaPlot software.

[2] = test system: HEK-293 cells expressing ABCG2; assay: Chemosensitization to mitoxantrone, cell growth test (MTT); format: cell-based, human; details: 5 μM compound, 72 hours, compared with cells not expressing ABCG2
Description: The cells are seeded (10 000 cells/well) in 96-well plates and incubated for 24 hours at 37° C. under 5% CO2. Varied concentrations of mitoxantrone (from 0 to 20 μM in a constant final volume of 100 μL) are then added with an equal volume of each of the test compounds. The cells are then left to divide for 72 hours. The cytotoxicity is evaluated colorimetrically with 3-(4,5-dimethylthiazol-2-yl)-2,5-diphenyltetrazolium bromide (MTT).
Increasing concentrations of mitoxantrone (MTX) are applied to HEK-293 cells expressing or not expressing ABCG2 and subjected or not subjected to a treatment with 5 μM of compound (IA.2), and whose residual vitality is evaluated after 72 hours of treatment by an MIT test. The results are illustrated in FIG. 3, in which the cells expressing ABCG2 are represented by circles, and those not expressing it by squares; those that are treated with 5 μM of (IA.2), i.e. five times its IC50, appear as empty symbols, whereas those that are not treated with (IA.2) appear as solid symbols. […] Compound (IA.2) thus appears to be a very efficient chemosensitizer.
Increasing concentrations of mitoxantrone (MTX) are applied to HEK-293 cells expressing or not expressing ABCG2 and subjected or not subjected to a treatment with 5 μM of compound (IA.1), and whose residual vitality is evaluated after 72 hours of treatment by an MTT test. The results are illustrated in FIG. 5, in which the cells expressing ABCG2 are represented by circles, and those not expressing it by squares; those that are treated with 5 μM of (IA.1), i.e. 2.5 times its IC50, appear as empty symbols, whereas those that are not treated with (IA.1) appear as solid symbols. […]
Increasing concentrations of mitoxantrone (MTX) are applied to HEK-293 cells expressing or not expressing ABCG2 and subjected or not subjected to a treatment with 5 μM of compound (IB.1), and whose residual vitality is evaluated after 72 hours of treatment by an MTT test. […]

Structure (SMILES) | IC50 [1] [nM] | inhibition at 2 μM [1] [%] | inhibition at 10 μM [1] [%] | chemosensitization: restoration of mitoxantrone sensitivity [2] | P-gp/ABCB1 IC50, μM [1]
CC(C)(C)OC(=O)NN(C(=O)N[C@@H](CCCCNC(=O)OCc1ccccc1)C(=O)OC(C)(C)C)c1ccccc1C(=O)OCc1ccccc1 [IA.1, tert-Butyl ester of (2S)-6-(benzyloxycarbonylamino)-2-[1-(2′-(benzyloxycarbonyl)phenyl)-2-(tert-butoxycarbonyl)hydrazino-carbonylamino]hexanoic acid] | ≤ 500 | 70 ± 10 | 74 ± 1 | chemosensitization; also recorded: restores virtually full mitoxantrone sensitivity | –
CC(C)(C)OC(=O)NN(C(=O)N[C@@H](CCCCNC(=O)OCc1ccccc1)C(=O)OC(C)(C)C)c1cccc(C(=O)OCc2ccccc2)c1 [IA.2, tert-Butyl ester of (2S)-6-(benzyloxycarbonylamino)-2-[1-(3′-(benzyloxycarbonyl)phenyl)-2-(tert-butoxycarbonyl)hydrazino-carbonylamino]hexanoic acid] | – | – | < 50 | chemosensitization; also recorded: restores mitoxantrone sensitivity equal to that observed in the control cells | –
CC(C)(C)OC(=O)N[C@H](CNN(CCCCCCNC(=O)OCc1ccccc1)C(=O)OC(C)(C)C)CC(=O)OCc1ccccc1 [IB.1, Benzyl ester of (3S)-4-[2-(6-benzyloxycarbonylaminohexyl)-2-tert-butoxycarbonylhydrazino]-3-tert-butoxycarbonylaminobutyric acid] | 1000 | 70 ± 20 | 63 ± 5 | chemosensitization; also recorded: virtually full restoration of mitoxantrone sensitivity | micromolar or submicromolar
CC(C)(C)OC(=O)N[C@H](CNN(CCCCCCNC(=O)OCc1ccccc1)C(=O)OCc1ccccc1)CC(=O)OCc1ccccc1 [IB.11, Benzyl ester of (3S)-4-[2-benzyloxycarbonyl-2-(6-benzyloxycarbonylaminohexyl)hydrazino]-3-tert-butoxycarbonyl-aminobutyric acid] | 700 ± 100 | – | – | – | micromolar or submicromolar
